Measured values published in ChEMBL document CHEMBL1201862, “PubChem BioAssay data set” (2004).
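Grown in 96-well plates, cells were treated for 48 hours with each compound at five concentrations. Insufficient inhibition: endpoint recorded as highest concentration tested. GI50 = concentration required for 50% inhibition of growth.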 Active and inactive are the calls of the source. Rule as the data show it: active = GI50 up to about 1.1 µM and inactive = higher.

How the values were obtained:
Assay in all cases: NCI anticancer screen, dose series, 48 h
XF498 = test system: XF498
HCT-15 = test system: HCT-15
OVCAR-5 = test system: OVCAR-5
UO-31 = test system: UO-31
K562 = test system: K562
SK-OV-3 = test system: SK-OV-3
HOP-18 = test system: HOP-18
A549 = test system: A549
RXF 393 = test system: RXF 393
LOX IMVI = test system: LOX IMVI
M14 = test system: M14
MDA-MB-231 = test system: MDA-MB-231
OVCAR-8 = test system: OVCAR-8
MDA-N = test system: MDA-N
CCRF-CEM = test system: CCRF-CEM
SF-539 = test system: SF-539
CAKI-1 = test system: CAKI-1
SW-620 = test system: SW-620
OVCAR-3 = test system: OVCAR-3
HT-29 = test system: HT-29
SNB-75 = test system: SNB-75
NCI/ADR-RES = test system: NCI/ADR-RES
NCI-H460 = test system: NCI-H460
U-251 = test system: U-251
NCI-H226 = test system: NCI-H226
MCF7 = test system: MCF7
IGROV-1 = test system: IGROV-1
Malme-3M = test system: Malme-3M
A498 = test system: A498
RPMI-8226 = test system: RPMI-8226
Hs-578T = test system: Hs-578T
KM-20L2 = test system: KM-20L2
DMS-273 = test system: DMS-273
HCC 2998 = test system: HCC 2998
ACHN = test system: ACHN
LXFL 529 = test system: LXFL 529
SN12C = test system: SN12C
COLO 205 = test system: COLO 205
HCT-116 = test system: HCT-116
DU-145 = test system: DU-145
SF-295 = test system: SF-295
SR = test system: SR
DLD-1 = test system: DLD-1
NCI-H23 = test system: NCI-H23
TK-10 = test system: TK-10
786-0 = test system: 786-0
OVCAR-4 = test system: OVCAR-4
UACC-257 = test system: UACC-257
EKVX = test system: EKVX
HOP-92 = test system: HOP-92
HL-60 = test system: HL-60
MOLT-4 = test system: MOLT-4
KM12 = test system: KM12
SK-MEL-5 = test system: SK-MEL-5
M19-MEL = test system: M19-MEL
SF-268 = test system: SF-268
SK-MEL-28 = test system: SK-MEL-28
UACC-62 = test system: UACC-62
MDA-MB-435 = test system: MDA-MB-435
T47D = test system: T47D
SNB-19 = test system: SNB-19
DMS-114 = test system: DMS-114
NCI-H522 = test system: NCI-H522
SK-MEL-2 = test system: SK-MEL-2
SNB-78 = test system: SNB-78
HOP-62 = test system: HOP-62
BT-549 = test system: BT-549
PC-3 = test system: PC-3
RXF 631 = test system: RXF 631

Which results are given for `c1ccc(CN2CCc3[nH]c4ccccc4c3C2)cc1`?
GI50 (XF498): 24.2 µM (inactive); GI50 (HCT-15): 25.9 µM; GI50 (OVCAR-5): 39.9 µM (inactive); GI50 (UO-31): 31.8 µM (inactive); GI50 (K562): 19.1 µM (inactive); GI50 (SK-OV-3): 58.3 µM (inactive); GI50 (HOP-18): 99.8 µM (inactive); GI50 (A549): 67.8 µM (inactive); GI50 (RXF 393): 34.7 µM (inactive); GI50 (LOX IMVI): 18.3 µM (inactive); GI50 (M14): 17.3 µM (inactive); GI50 (MDA-MB-231): 26.7 µM (inactive); GI50 (OVCAR-8): 46.1 µM (inactive); GI50 (MDA-N): 22.1 µM (inactive); GI50 (CCRF-CEM): 24.3 µM (inactive); GI50 (SF-539): 25 µM (inactive); GI50 (CAKI-1): 36.5 µM (inactive); GI50 (SW-620): 24.8 µM (inactive); GI50 (OVCAR-3): 33 µM (inactive); GI50 (HT-29): 17.3 µM (inactive); GI50 (SNB-75): 51.6 µM (inactive); GI50 (NCI/ADR-RES): 36.1 µM (inactive); GI50 (NCI-H460): 16.7 µM (inactive); GI50 (U-251): 21.4 µM (inactive); GI50 (NCI-H226): 33.4 µM (inactive); GI50 (MCF7): 17.1 µM (inactive); GI50 (IGROV-1): 38.7 µM (inactive); GI50 (Malme-3M): 17.8 µM (inactive); GI50 (A498): 26.6 µM (inactive); GI50 (RPMI-8226): 23.8 µM (inactive); GI50 (Hs-578T): 32.5 µM (inactive); GI50 (KM-20L2): 15 µM (inactive); GI50 (DMS-273): 56.2 µM (inactive); GI50 (HCC 2998): 15.4 µM (inactive); GI50 (ACHN): 33.9 µM (inactive); GI50 (LXFL 529): 22.9 µM (inactive); GI50 (SN12C): 34.3 µM (inactive); GI50 (COLO 205): 16.9 µM (inactive); GI50 (HCT-116): 19.9 µM (inactive); GI50 (DU-145): 31 µM (inactive); GI50 (SF-295): 29.9 µM (inactive); GI50 (SR): 21.9 µM (inactive); GI50 (DLD-1): 37.8 µM (inactive); GI50 (NCI-H23): 59.2 µM (inactive); GI50 (TK-10): 23.9 µM (inactive); GI50 (786-0): 22 µM (inactive); GI50 (OVCAR-4): 34.8 µM (inactive); GI50 (UACC-257): 16 µM (inactive); GI50 (EKVX): 46.5 µM (inactive); GI50 (HOP-92): 18 µM (inactive); GI50 (HL-60): 17.6 µM (inactive); GI50 (MOLT-4): 22.2 µM (inactive); GI50 (KM12): 22.5 µM (inactive); GI50 (SK-MEL-5): 16.9 µM (inactive); GI50 (M19-MEL): 26.5 µM (inactive); GI50 (SF-268): 43.8 µM (inactive); GI50 (SK-MEL-28): 17.5 µM (inactive); GI50 (UACC-62): 26.1 µM (inactive); GI50 (MDA-MB-435): 22.9 µM (inactive); GI50 (T47D): 14.9 µM (inactive); GI50 (SNB-19): 69.8 µM (inactive); GI50 (DMS-114): 19.8 µM (inactive); GI50 (NCI-H522): 18.1 µM (inactive); GI50 (SK-MEL-2): 19.9 µM (inactive); GI50 (SNB-78): 35.6 µM (inactive); GI50 (HOP-62): 41 µM (inactive); GI50 (BT-549): 30.5 µM (inactive); GI50 (PC-3): 25.4 µM (inactive); GI50 (RXF 631): 18.8 µM (inactive)
